In test [1] the test system is T47D (PI3Kα H1047R mutant) cells. The experiment in a line: CellTiter-Glo 2.0 luminescent cell viability assay, 72 hours, T47D cells. It counts as cell-based. Conditions: Homo sapiens, T47D, 72 h, T47D (PI3Kα H1047R mutant) cells, CellTiter-Glo, approximately 72 hours; read-out: T47D (H1047R mutant) Viability IC50. Summed up:
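Viability was measured by CellTiter-Glo 2.0 luminescence after approximately 72 h of compound exposure at 37° C. Plating was 1000 cells per well the day before dosing, with ten 1:4 dilutions from a 10 µM top concentration. Values as percent of vehicle were fitted by variable-slope log(inhibitor) regression to give IC50.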

The test system of test [2] is SKBR3 (PI3Kα wild type) cells. The experiment in a line: CellTiter-Glo 2.0 luminescent cell viability assay, 72 hours, SKBR3 cells. It counts as cell-based. Conditions: Homo sapiens, SK-BR-3, 72 h, SKBR3 (PI3Kα wild type) cells, CellTiter-Glo, approximately 72 hours; read-out: SKBR3 (WT) Viability IC50. Summed up: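 Viability measured via CTG luminescence following roughly 72 hours of compound exposure at 37° C. Dosing used a 10 um starting concentration diluted 1:4 over 10 points; percent-of-vehicle data fitted with a variable-slope four-parameter model for IC50.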

From patent US20260078120A1, “SUBSTITUTED PYRIDOPYRIMIDINONES” (MIRATI THERAPEUTICS, INC., priority 2022, published 2026) come the findings set out here.

Each structure is given as a SMILES string.

On to `Cc1cc(C(C)Nc2ccccc2C(=O)O)c2nc(-c3ccc(C#N)cc3)cc(=O)n2c1` (centres unmarked) [Example 11-397, 2-((1-(2-(4-cyanophenyl)-7-methyl-4-oxo-4H-pyrido[1,2-a]pyrimidin-9-yl)ethyl)amino)benzoic acid], for which the IC50 is 3.37 µM in test [1] and > 10 µM in test [2].

Turning to `Cc1cc(C(C)Nc2cccc(C(=O)O)c2)c2nc(N3CCCCC3)cc(=O)n2c1` (centres unmarked) [Example 11-389, 3-((1-(7-methyl-4-oxo-2-(piperidin-1-yl)-4H-pyrido[1,2-a]pyrimidin-9-yl)ethyl)amino)benzoic acid], the IC50 in test [1] and in test [2] was > 10 µM throughout.

Take `Cc1cc([C@@H](C)Nc2ccccc2)c2nc(N3Cc4ccccc4C3)c(C#N)c(=O)n2c1` [Example 11-301, (R)-2-(isoindolin-2-yl)-7-methyl-4-oxo-9-(1-(phenylamino)ethyl)-4H-pyrido[1,2-a]pyrimidine-3-carbonitrile]: the IC50 came to 9.15 µM in test [1] and 8.83 µM in test [2].

With `Cc1cc([C@@H](C)Nc2ccccc2C(=O)O)c2nc(C#Cc3ccc(C#N)cc3)c(C)c(=O)n2c1` [Example 11-253, (R)-2-((1-(2-((4-cyanophenyl)ethynyl)-3,7-dimethyl-4-oxo-4H-pyrido[1,2-a]pyrimidin-9-yl)ethyl)amino)benzoic acid], the IC50 in test [1] was 0.492 µM; in test [2], > 10 µM.

With `Cc1cc([C@@H](C)Nc2ccccc2C(=O)O)c2nc(N3CCN(c4ccc(C#N)c5ccc(O)cc45)CC3)c(C)c(=O)n2c1` [Example 11-255, (R)-2-((1-(2-(4-(4-cyano-7-hydroxynaphthalen-1-yl)piperazin-1-yl)-3,7-dimethyl-4-oxo-4H-pyrido[1,2-a]pyrimidin-9-yl)ethyl)amino)benzoic acid], the IC50 in test [1] was 0.28 µM; in test [2], > 10 µM.

For `Cc1cc([C@@H](C)Nc2ccccc2C(=O)O)c2nc(N3CCN(c4cccc5c(C#N)nn(C)c45)CC3)c(C)c(=O)n2c1` [Example 11-251, (R)-2-((1-(2-(4-(3-cyano-1-methyl-1H-indazol-7-yl)piperazin-1-yl)-3,7-dimethyl-4-oxo-4H-pyrido[1,2-a]pyrimidin-9-yl)ethyl)amino)benzoic acid], the IC50 was 0.263 µM in test [1] and > 10 µM in test [2].

With `Cc1cc([C@@H](C)Nc2ccccc2C(=O)O)c2nc(N3C4CC3CN(c3ccc(C#N)cc3)C4)c(C#N)c(=O)n2c1` [Example 11-179, 2-(((1R)-1-(3-cyano-2-(3-(4-cyanophenyl)-3,6-diazabicyclo[3.1.1]heptan-6-yl)-7-methyl-4-oxo-4H-pyrido[1,2-a]pyrimidin-9-yl)ethyl)amino)benzoic acid], the IC50 in test [1] was 1.53 µM; in test [2], > 10 µM.

As to `Cc1cc(C(C)Nc2ccccc2C(=O)O)c2nc(-c3ccc(=O)n(C)c3)cc(=O)n2c1` (centres unmarked) [Example 11-383, 2-((1-(7-methyl-2-(1-methyl-6-oxo-1,6-dihydropyridin-3-yl)-4-oxo-4H-pyrido[1,2-a]pyrimidin-9-yl)ethyl)amino)benzoic acid], the IC50 in test [1] was 4.03 µM; in test [2], > 10 µM.

For `Cc1cc(C(C)Nc2ccccc2C(=O)O)c2nc(-c3ccccn3)cc(=O)n2c1` (centres unmarked) [Example 11-402, 2-((1-(7-methyl-4-oxo-2-(pyridin-2-yl)-4H-pyrido[1,2-a]pyrimidin-9-yl)ethyl)amino)benzoic acid], the IC50 in test [1] is 6.87 µM; in test [2], > 10 µM.

On to `C[C@@H](Nc1ccc(Cl)nc1C(=O)O)c1cc(Cl)cn2c(=O)c(C#N)c(N3CCC(F)(F)CC3)nc12` [Example 11-50, (R)-6-chloro-3-((1-(7-chloro-3-cyano-2-(4,4-difluoropiperidin-1-yl)-4-oxo-4H-pyrido[1,2-a]pyrimidin-9-yl)ethyl)amino)picolinic acid], for which the values for the IC50 in test [1] and in test [2] were 0.217 µM and > 10 µM, respectively.

For `Cc1cc([C@@H](C)Nc2ccccc2C(=O)O)c2nc(N3CCN(c4ccc(C(F)(F)F)cc4C#N)C[C@@H]3C)c(C)c(=O)n2c1` [Example 11-80, 2-(((R)-1-(2-((S)-4-(2-cyano-4-(trifluoromethyl)phenyl)-2-methylpiperazin-1-yl)-3,7-dimethyl-4-oxo-4H-pyrido[1,2-a]pyrimidin-9-yl)ethyl)amino)benzoic acid], the IC50 in test [1] is 0.33 µM; in test [2], > 10 µM.

Turning to `Cc1cc([C@@H](C)Nc2ccccc2C(=O)O)c2nc(NC[C@@H]3CCOC3)c(C)c(=O)n2c1` [Example 11-195, 2-(((R)-1-(3,7-dimethyl-4-oxo-2-((((S)-tetrahydrofuran-3-yl)methyl)amino)-4H-pyrido[1,2-a]pyrimidin-9-yl)ethyl)amino)benzoic acid], the IC50 was 0.383 µM in test [1] and > 10 µM in test [2].

Regarding `Cc1cc([C@H](C)OC(=O)c2nc(Cl)ccc2N)c2nc(N3CCCCC3)c(C#N)c(=O)n2c1` [Example 11-329, (S)-1-(3-cyano-7-methyl-4-oxo-2-(piperidin-1-yl)-4H-pyrido[1,2-a]pyrimidin-9-yl)ethyl 3-amino-6-chloropicolinate], the IC50 in test [1] is 1.1 µM; in test [2], > 10 µM.

As for `Cc1cc([C@@H](C)Nc2ccccc2C(=O)O)c2nc(N3CC[C@@H]3C(F)(F)F)c(C)c(=O)n2c1` [Example 11-98, 2-(((R)-1-(3,7-dimethyl-4-oxo-2-((R)-2-(trifluoromethyl)azetidin-1-yl)-4H-pyrido[1,2-a]pyrimidin-9-yl)ethyl)amino)benzoic acid], the IC50 is 0.473 µM in test [1] and > 10 µM in test [2].

As to `Cc1cc(C(C)Nc2ccccc2C(=O)O)c2nc(N3CCN(c4ccc(C#N)cc4)CC3)cc(=O)n2c1` (centres unmarked) [Example 11-334, 2-((1-(2-(4-(4-cyanophenyl)piperazin-1-yl)-7-methyl-4-oxo-4H-pyrido[1,2-a]pyrimidin-9-yl)ethyl)amino)benzoic acid], the IC50 was 0.113 µM in test [1] and 1.27 µM in test [2].

For the molecule `Cc1cc([C@@H](C)Nc2ccccc2C(=O)O)c2nc(N3CCN(C4CC4)CC3)c(C)c(=O)n2c1` [Example 11-151, (R)-2-((1-(2-(4-cyclopropylpiperazin-1-yl)-3,7-dimethyl-4-oxo-4H-pyrido[1,2-a]pyrimidin-9-yl)ethyl)amino)benzoic acid], the IC50 was 0.347 µM in test [1] and > 10 µM in test [2].

Consider `Cc1cc([C@@H](C)Nc2ccccc2C(=O)O)c2nc(N3CCN(c4ccccc4C)CC3)c(C)c(=O)n2c1` [Example 11-267, (R)-2-((1-(3,7-dimethyl-4-oxo-2-(4-(o-tolyl)piperazin-1-yl)-4H-pyrido[1,2-a]pyrimidin-9-yl)ethyl)amino)benzoic acid], for which the IC50 in test [1] was 0.236 µM; in test [2] it was > 10 µM.

On to `Cc1cc([C@@H](C)Nc2ccccc2C(=O)O)c2nc(NCC3CCOC3)c(C#N)c(=O)n2c1` (stereo partly drawn) [Example 11-194, 2-(((1R)-1-(3-cyano-7-methyl-4-oxo-2-(((tetrahydrofuran-3-yl)methyl)amino)-4H-pyrido[1,2-a]pyrimidin-9-yl)ethyl)amino)benzoic acid], for which the values for the IC50 in test [1] and in test [2] were 0.59 µM and > 10 µM, respectively.

In the case of `CC(Nc1ccccc1C(=O)O)c1cc(C#N)cn2c(=O)cc(N3CCC(F)(F)CC3)nc12` (centres unmarked) [Example 11-419, 2-((1-(7-cyano-2-(4,4-difluoropiperidin-1-yl)-4-oxo-4H-pyrido[1,2-a]pyrimidin-9-yl)ethyl)amino)benzoic acid], the IC50 in test [1] and in test [2] was > 10 µM in each case.
